We go through five test systems from the supplement of paper PMC10331698.

± gives the standard deviation of the averaged measurements.

Holding throughout (assay): level (log10 ratio to DMSO vehicle control); higher = higher biomarker level / cell amount than vehicle control
Holding throughout (settings): in DMSO

Compound in assay [1]: C=CC(F)(F)C(F)(F)C(F)(F)C(F)(F)C(F)(F)C(F)(F)C(F)(F)C(F)(F)C=C [1,8-Divinylperfluorooctane]
The method, then: (§1)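 BioMAP Diversity Plus panel of 12 human primary cell co-culture systems (3C, 4H, LPS, SAg, BT, BF4T, BE3C, CASM3C, HDF3CGF, KF3CT, MyoF, Mphg). Compounds were added 1 h before stimulation and left for 24 h (MyoF 48 h; BT 72 h for soluble read-outs or 6 d for IgG). Biomarkers were read by ELISA, cytotoxicity by SRB, PBMC viability and proliferation by Alamar Blue. Each well value was divided by the mean of 8 DMSO control wells on the same plate and log10 transformed; duplicate blinded samples were tested at 4 concentrations.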

Compound in assay [2]: CCN(CCO)S(=O)(=O)C(F)(F)C(F)(F)C(F)(F)C(F)(F)C(F)(F)C(F)(F)C(F)(F)C(F)(F)F [N-Ethyl-N-(2-hydroxyethyl)perfluorooctanesulfonamide]
The method, then:
as §1

Compound in assay [3]: NCC(F)(F)C(F)(F)C(F)(F)C(F)(F)C(F)(F)C(F)(F)C(F)(F)F [1H,1H-Perfluorooctylamine]
How it is done: as §1

Compound in the next assay: O=C(O)C(F)(F)C(F)(F)C(F)(F)F [Perfluorobutanoic acid]
The method, then: as §1

Compound in another assay: O=C(O)C(F)(F)C(F)(F)F [Perfluoropropanoic acid]
How it is done:
as §1

Compound in assay [4]: O=C(O)C(F)(F)OC(F)(F)C(F)(F)OC(F)(F)C(=O)O [Perfluoro-3,6-dioxaoctane-1,8-dioic acid]
The method, then: as §1

Compound in assay [5]: OCC(F)(F)OC(F)(F)C(F)(F)OC(F)(F)CO [1H,1H,8H,8H-Perfluoro-3,6-dioxaoctane-1,8-diol]
How it is done:
as §1

As to lMphg:IL-1alpha, the “level (log10)” value in assay [1] (6700 nM) is 0.003 ± 0.027; in assay [1] (20000 nM) it was 0.046 ± 0.034; in assay [2] (6700 nM) it was -0.018 ± 0.054; in assay [2] (20000 nM), -0.0235 ± 0.018; in assay [3] (6700 nM), -0.005 ± 0.016; in assay [3] (20000 nM), -0.0045 ± 0.013. Moreover, the “level (log10)” value in assay [3] (60000 nM) is 0.0045 ± 0.0092; with Perfluorobutanoic acid (6700 nM), 0.002 ± 0.041; with Perfluorobutanoic acid (20000 nM), 0.022 ± 0.079; in the assay with Perfluorobutanoic acid (60000 nM), 0.0365 ± 0.076; with Perfluoropropanoic acid (6700 nM), -0.0235 ± 0.00071; with Perfluoropropanoic acid (20000 nM) it was -0.019 ± 0.038. The “level (log10)” value is 0.035 ± 0.027 with Perfluoropropanoic acid (60000 nM); 0.009 ± 0.018 in assay [4] (6700 nM); 0.001 in assay [4] (20000 nM); 0.0015 ± 0.0035 in assay [4] (60000 nM); -0.027 ± 0.09 in assay [5] (6700 nM); -0.036 ± 0.035 in assay [5] (20000 nM). For the same test system, the “level (log10)” value in assay [5] (60000 nM) is -0.021 ± 0.018.
Turning to lMphg:M-CSF, the “level (log10)” value is -0.0315 ± 0.005 in assay [1] (6700 nM); 0.0015 ± 0.039 in assay [1] (20000 nM); -0.001 ± 0.0057 in assay [2] (6700 nM); 0.0105 ± 0.0035 in assay [2] (20000 nM); -0.024 ± 0.033 in assay [3] (6700 nM); -0.0185 ± 0.005 in assay [3] (20000 nM). The “level (log10)” value was -0.0245 ± 0.0021 in assay [3] (60000 nM); -0.023 ± 0.024 in the assay with Perfluorobutanoic acid (6700 nM); -0.0005 ± 0.011 in the assay with Perfluorobutanoic acid (20000 nM); 0.024 ± 0.031 with Perfluorobutanoic acid (60000 nM); -0.014 ± 0.0085 with Perfluoropropanoic acid (6700 nM); -0.0155 ± 0.00071 in the assay with Perfluoropropanoic acid (20000 nM). The “level (log10)” value was 0.003 ± 0.017 in the assay with Perfluoropropanoic acid (60000 nM); -0.009 in assay [4] (6700 nM); -0.0185 ± 0.015 in assay [4] (20000 nM); 0.01 ± 0.042 in assay [4] (60000 nM); -0.011 ± 0.0071 in assay [5] (6700 nM); -0.004 ± 0.0085 in assay [5] (20000 nM). Further, the “level (log10)” value in assay [5] (60000 nM) was -0.01 ± 0.0028.
Take lMphg:SRB: the “level (log10)” value is 0.0125 ± 0.00071 in assay [1] (6700 nM); 0.019 ± 0.0028 in assay [1] (20000 nM); -0.0215 ± 0.0078 in assay [2] (6700 nM); -0.0435 ± 0.022 in assay [2] (20000 nM); -0.008 ± 0.0085 in assay [3] (6700 nM); 0.001 ± 0.0042 in assay [3] (20000 nM). The “level (log10)” value in assay [3] (60000 nM) is -0.002 ± 0.0099; in the assay with Perfluorobutanoic acid (6700 nM), -0.012 ± 0.017; with Perfluorobutanoic acid (20000 nM), -0.0235 ± 0.037; in the assay with Perfluorobutanoic acid (60000 nM), 0.002 ± 0.031; in the assay with Perfluoropropanoic acid (6700 nM), -0.0065 ± 0.005; with Perfluoropropanoic acid (20000 nM), -0.0125 ± 0.0021. Moreover, the “level (log10)” value with Perfluoropropanoic acid (60000 nM) was -0.011 ± 0.016; in assay [4] (6700 nM), -0.0035 ± 0.013; in assay [4] (20000 nM) it was -0.009 ± 0.014; in assay [4] (60000 nM), -0.0035 ± 0.015; in assay [5] (6700 nM), -0.028 ± 0.021; in assay [5] (20000 nM), 0.015. Further, the “level (log10)” value in assay [5] (60000 nM) was -0.0375 ± 0.0021.
With lMphg:SRB-Mphg, the “level (log10)” value in assay [1] (6700 nM) was -0.0135 ± 0.016; in assay [1] (20000 nM), 0.0495 ± 0.0092; in assay [2] (6700 nM), 0.0095 ± 0.00071; in assay [2] (20000 nM) it was 0.001 ± 0.021; in assay [3] (6700 nM), -0.0055 ± 0.005; in assay [3] (20000 nM), -0.007 ± 0.0042. The “level (log10)” value is 0.0055 ± 0.032 in assay [3] (60000 nM); -0.059 ± 0.054 with Perfluorobutanoic acid (6700 nM); -0.0275 ± 0.18 with Perfluorobutanoic acid (20000 nM); 0.0175 ± 0.17 with Perfluorobutanoic acid (60000 nM); -0.0375 ± 0.035 with Perfluoropropanoic acid (6700 nM); -0.096 ± 0.057 in the assay with Perfluoropropanoic acid (20000 nM). Also, the “level (log10)” value is -0.0265 ± 0.1 with Perfluoropropanoic acid (60000 nM); -0.0025 ± 0.0035 in assay [4] (6700 nM); -0.009 ± 0.016 in assay [4] (20000 nM); -0.003 ± 0.0099 in assay [4] (60000 nM); -0.015 ± 0.033 in assay [5] (6700 nM); 0.0175 ± 0.023 in assay [5] (20000 nM). In assay [5] (60000 nM), the “level (log10)” value was found to be 0.0455 ± 0.077.
As for lMphg:sIL-10, the “level (log10)” value in assay [1] (6700 nM) is -0.053 ± 0.085; in assay [1] (20000 nM) it was -0.0135 ± 0.03; in assay [2] (6700 nM) it was 0 ± 0.024; in assay [2] (20000 nM) it was -0.0505 ± 0.028; in assay [3] (6700 nM), -0.067 ± 0.14; in assay [3] (20000 nM), -0.002 ± 0.082. Also, the “level (log10)” value in assay [3] (60000 nM) was -0.022 ± 0.04; with Perfluorobutanoic acid (6700 nM) it was 0.034 ± 0.013; in the assay with Perfluorobutanoic acid (20000 nM), -0.005 ± 0.03; with Perfluorobutanoic acid (60000 nM), -0.02 ± 0.037; with Perfluoropropanoic acid (6700 nM), -0.0045 ± 0.016; with Perfluoropropanoic acid (20000 nM) it was 0.008 ± 0.0099. In addition, the “level (log10)” value in the assay with Perfluoropropanoic acid (60000 nM) is -0.042 ± 0.024; in assay [4] (6700 nM) it was -0.0425 ± 0.011; in assay [4] (20000 nM), -0.0615 ± 0.036; in assay [4] (60000 nM) it was -0.058 ± 0.055; in assay [5] (6700 nM), -0.0295 ± 0.022; in assay [5] (20000 nM), -0.0355 ± 0.13. Further, the “level (log10)” value in assay [5] (60000 nM) is 0.0065 ± 0.00071.
